From US8252507B2, “Photoactive compound and photosensitive resin composition comprising the same” (LG Chem, Ltd., priority 2008, dated 2012)

Test: Solubility measurement in organic solvents
Assay type: physicochemical
Conditions: for Solubility in 3-MBA: amount (g) of compound completely dissolved in 3-methoxybutyl acetate; for Solubility in CH: amount (g) of compound completely dissolved in cyclohexanone; for Solubility in DPM: amount (g) of compound completely dissolved in dipropylene glycol methyl ether; for Solubility in EEP: amount (g) of compound completely dissolved in ethyl-3-ethoxy propionate; for Solubility in PGMEA: amount (g) of compound completely dissolved in propylene glycol methyl ether acetate
Protocol: The solubilities of Irgacure OXE-02 (Ciba Specialty Chemical) of Comparative Example 1, the compounds of Comparative Examples 2-3, and the compound of Example 1, which contains oxime ester moieties, were measured in various solvents, including propylene glycol methyl ether acetate (PGMEA), dipropylene glycol methyl ether (DPM), 3-methoxybutyl acetate (MBA), ethyl-3-ethoxy propionate (EEP) and cyclohexanone (CH). The solubility of each of the compounds was determined by measuring the amount (g) of the compound completely dissolved in the corresponding solvent.

Row | Compound | Solubility in 3-MBA | Solubility in CH | Solubility in DPM | Solubility in EEP | Solubility in PGMEA
1 | CCn1c2ccc(C(=O)c3ccccc3C)cc2c2cc(/C(C)=N/OC(C)=O)ccc21 [Comparative Example 1] | 10 g | 40 g | 5 g | 10 g | 12 g
2 | CC(=O)O/N=C(\C)c1ccc(-c2nc(C(Cl)(Cl)Cl)nc(C(Cl)(Cl)Cl)n2)cc1 [Comparative Example 2, 2,4-trichloromethyl-(4′-acetylphenylacetoxime)-6-triazine] | 5 g | 25 g | 3 g | 6 g | 7 g
3 | CC(=O)O/N=C/c1ccc(-c2ccc(-c3nc(C(Cl)(Cl)Cl)nc(C(Cl)(Cl)Cl)n3)cc2)cc1 [Comparative Example 3, 2,4-trichloromethyl-(4′-formylbiphenylacetoxime)-6-triazine] | 5 g | 20 g | 2 g | 5 g | 7 g
4 | CCn1c2ccc(C(=O)c3ccc(OCC4COC(C)(C)O4)cc3)cc2c2cc(/C(CC(c3ccccc3)N(OC(C)=O)C(C)=O)=N/OC(C)=O)ccc21 (centres unmarked) [Example 1] | 13 g | 60 g | 7 g | 15 g | 20 g
